Literature values, collected in US11591275B2, “Smart release potash fertilizer granules” (RYNAN TECHNOLOGIES PTE LTD, priority 2018, dated 2023).

Conditions: for pKa: of the organic acid in the extended release layer

pKa* of associated acids (acid associated with the anion pendant group of the anti-caking copolymer) | pKa | SMILES
4.23 | 4.23 | O=C(O)Cc1cccc2ccccc12 [1-Naphthalene Acetic Acid, 1-Naphthalene acetic acid]
– | 4.10 | O=C(O)C(=O)O [Oxalic Acid]
